The source of these data is US7495104B2, “Quinoline or quinazoline derivatives inhibiting auto-phosphorylation of fibroblast growth factor receptors” (Kirin Beer Kabushiki Kaisha, priority 2001, dated 2009).

In this assay the target is Bek (Homo sapiens, UniProt P21802). Briefly: Inhibitory activity against Bek-autophosphorylation using ELISA method in OCUM-2MD3 cells. It counts as cell-based. The settings on record: 1 hr with compound, read-out: IC50 (concentration necessary for inhibiting 50% of Bek-phosphorylation). The procedure: Human scirrhus stomach cancer cells OCUM-2MD3 (kindly provided by Dr. Kosei Hirakawa, Osaka City University) were cultured in an RPMI medium containing 10% fetal calf serum (purchased from ICN) within a 5% carbon dioxide incubator until 50 to 90% confluent. The harvested cells were seeded onto 96-well flat-bottom plate in RPMI containing 0.1% fetal calf serum at 3.5×10^4 cells per well, followed by cultivation at 37° C. overnight. A solution of the test compound in dimethyl sulfoxide was added to each well, and the cultivation was continued at 37° C. for additional one hr. The medium was removed, and 50 μl of lysis buffer (20 mM HEPES (pH 7.4), 150 mM NaCl, 0.2% Triton X-100, 10% glycerol, 5 mM sodium orthovanadylate, 5 mM disodium ethylenediaminetetraacetate, and 2 mM Na4P2O7) was then added thereto. The mixture was shaken at 4° C. for 2 hr to prepare cell extracts.
Chain of Bek (P21802 431-767 limits assumed): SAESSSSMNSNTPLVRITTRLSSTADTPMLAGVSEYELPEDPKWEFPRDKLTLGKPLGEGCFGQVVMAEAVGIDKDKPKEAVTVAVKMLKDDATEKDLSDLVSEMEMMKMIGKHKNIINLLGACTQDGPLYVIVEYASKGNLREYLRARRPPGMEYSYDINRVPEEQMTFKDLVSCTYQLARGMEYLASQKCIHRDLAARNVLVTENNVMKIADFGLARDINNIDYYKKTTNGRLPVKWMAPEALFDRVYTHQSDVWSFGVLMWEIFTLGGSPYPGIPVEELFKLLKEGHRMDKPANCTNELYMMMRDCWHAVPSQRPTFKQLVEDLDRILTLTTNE
Separately, phosphate buffered saline (50 μl, pH 7.4) containing 5 μg/ml of anti-phospho-tyrosine antibody (PY20; purchased from Transduction Laboratories) was added to a microplate for ELISA (Maxisorp; purchased from NUNC), followed by standing at 4° C. overnight to form a solid phase on the wells. After washing of the plate, 300 μl of a blocking solution was added, followed by standing at room temperature for 2 hr to perform blocking. After washing, the whole quantity of the cell extracts was transferred to the wells, and the plate was then allowed to stand at 4° C. overnight. After washing, an anti-Bek antibody (Bek (C-17), purchased from Santa Cruz Biotechnology) or Anti-Human K-sam Rabbit IgG Affinity Purity (purchased from IBL Co., Ltd.) was allowed to react at room temperature for one hr, and, after washing, a peroxidase-labeled anti-rabbit Ig antibody (purchased from Amersham) was allowed to react at room temperature for one hr. After washing, a chromophoric substrate for peroxidase (purchased from Sumitomo Bakelite Co., Ltd.) was added thereto to initiate a reaction. After a suitable level of color development, a reaction termination solution was added to stop the reaction, and the absorbance at 450 nm was measured with a microplate reader. The Bek-phosphorylation activity for each well was determined by presuming the absorbance without the addition of the medicament to be 100% Bek-phosphorylation activity and the absorbance with the addition of a large excess of a positive control (N-{4-[(6,7-dimethoxy-4-quinolyl)oxy]phenyl}-N′-(3,3-dimethylbutyl)urea, 1000 nM) to be 0% Bek-phosphorylation activity. The concentration of the test compound was varied on several levels, the Bek-phosphorylation inhibitory activity was determined for each case, and the concentration of the test compound necessary for inhibiting 50% of Bek-phosphorylation (IC50) was calculated.
On the technique in general: In an ELISA, binding on a coated surface is turned into a signal by an enzyme label.
Take `COc1cc2c(Oc3ccc(NC(=O)NCCC(C)(C)C)cc3)ccnc2cc1OCCNCCO` [Compound 372, 1-(3,3-Dimethyl-butyl)-3-(4-{7-[2-(2-hydroxy-ethylamino)-ethoxy]-6-methoxy-quinolin-4-yloxy}-phenyl)-urea]: the IC50 is less than 10 nM. The figure for `COc1cc2c(Oc3ccc(Nc4ccc(C(C)(C)C)cc4)cc3)ccnc2cc1OCCCN1CCCCCC1` [Compound 54, {4-[7-(3-Azepan-1-ylpropoxy)-6-methoxyquinolin-4-yloxyl]-phenyl}-(4-tert-butylphenyl)amine] is 324 nM; for `COc1cc2c(Oc3ccc(NC(=O)NCCC(C)(C)C)c(Cl)c3)ccnc2cc1OCCCN1CCC(CO)CC1` [Compound 266, 1-(2-Chloro-4-{7-[3-(4-hydroxymethyl-piperidin-1-yl)-propoxy]-6-methoxy-quinolin-4-yloxy}-phenyl)-3-(3,3-dimethyl-butyl)-urea] it is 11 nM. In the case of `CCN(CC)CCOc1cc2nccc(Oc3ccc(Nc4ccc(C(C)(C)C)cc4)cc3)c2cc1OC` [Compound 41, N1-[4-(Tert-butyl)phenyl]-4-({7-[2-(diethylamino)ethoxy]-6-methoxy-4-quinolyl}oxy)aniline] it was 480 nM; in that of `COc1cc2c(Oc3ccc(NC(=O)NCCC(C)(C)C)c(Cl)c3)ccnc2cc1OCCCl` [Compound 160, 1-{2-Chloro-4-[7-(2-chloro-ethoxy)-6-methoxy-quinolin-4-yloxy]-phenyl}-3-(3,3-dimethyl-butyl)-urea], 23.5 nM; in that of `COc1cc(Oc2ccnc3cc(OC)c(OC)cc23)ccc1Nc1ccc(C(C)(C)C)cc1` [Compound 14, (4-Tert-butylphenyl)-[4-(6,7-dimethoxyquinolin-4-yloxy)-2-methoxyphenyl]amine], 1920 nM. The figure for `CCNCC(O)COc1cc2nccc(Oc3ccc(Nc4ccc(C(C)(C)C)cc4)cc3)c2cc1OC` (stereo not shown) [Compound 66, 1-{4-[4-(4-Tert-butylphenylamino)phenoxy]-6-methoxyquinolin-7-yloxy}-3-ethylaminopropan-2-ol] is 199 nM; for `COc1cc2c(Oc3ccc(NC(=O)NCCC(C)(C)C)c(Cl)c3)ccnc2cc1OCCCN1CCOCC1` [Compound 182, 1-{2-Chloro-4-[6-methoxy-7-(3-morpholin-4-yl-propoxy)-quinolin-4-yloxy]-phenyl}-3-(3,3-dimethyl-butyl)-urea] it is 9.5 nM; for `COc1cc2c(Oc3ccc(Nc4ccc(C(C)(C)C)cc4)cc3)ccnc2cc1OCC1CCCN1C` (stereo not shown) [Compound 58, (4-Tert-butylphenyl)-{4-[6-methoxy-7-(1-methylpyrrolidin-2-ylmethoxy)quinolin-4-yloxy]phenyl}amine] it is 1200 nM. In the case of `COc1cc2c(Oc3ccc(NC(=O)NCCC(C)(C)C)c(Cl)c3)ccnc2cc1OCC(O)CN1CCCN(C)CC1` (stereo not shown) [Compound 196, 1-(2-Chloro-4-{7-[2-hydroxy-3-(4-methyl-[1,4]diazepan-1-yl)-propoxy]-6-methoxy-quinolin-4-yloxy}-phenyl)-3-(3,3-dimethyl-butyl)-urea], the IC50 came to 17.3 nM. On to `COc1cc(Oc2ccnc3cc(OC)c(OC)cc23)ccc1NC(=O)NCCC(C)(C)C` [Compound 138, 1-[4-(6,7-Dimethoxy-quinolin-4-yloxy)-2-methoxy-phenyl]-3-(3,3-dimethyl-butyl)-urea], for which the IC50 was 317 nM. In the case of `COc1cc2c(Oc3ccc(NC(=O)NCCC(C)(C)C)cc3F)ccnc2cc1OCCN1C(C)CCCC1C` (stereo not shown) [Compound 132, 1-(3,3-Dimethyl-butyl)-3-(4-{7-[2-(2,6-dimethyl-piperidin-1-yl)-ethoxy]-6-methoxy-quinolin-4-yloxy}-3-fluoro-phenyl)-urea], the IC50 amounted to 146 nM. Consider `COc1cc2nccc(Oc3ccc(NC(=O)NC4CC(C)CC(C)(C)C4)cc3)c2cc1OC` (stereo not shown) [Compound 105, 1-[4-(6,7-Dimethoxy-quinolin-4-yloxy)-phenyl]-3-(3,3,5-trimethyl-cyclohexyl)-urea], for which the IC50 is 30.6 nM.
